Assay: Percent purity of PTHrP analogue (10 mg/mL formulations) in coating on arrays stored at 25° C./60% RH or 5° C./ambient RH (HPLC)
Format: physicochemical
Procedure: The protein or polypeptide content in the formulation coated on the microneedle arrays was determined using an Agilent 1100 HPLC system (Agilent Technologies, Wilmington, Del.) equipped with a binary pump, well-plated thermostated autosampler, thermostated column compartment, and a diode array UV detector. A Zorbax 300SB-C8 column (Agilent Technologies, Wilmington, Del.) having a 5 μm particle size and 2.1×150 mm inner diameter was used for the separations. The column was maintained at 50° C. The mobile phase consisted of two eluents. Eluent A was 0.1% TFA (trifluoroacetic acid) in water and eluent B was 0.1% TFA in acetonitrile (Spectrum Chemical, New Brunswick, N.J.). A linear gradient from 80/20 to 50/50 (A/B) was applied over 30 minutes. The flow rate was 0.4 mL/minute and the UV detection wavelength was set at 214 nm. The total run time was 34 minutes and the sample injection volume was 15 μL.
A sample formulation containing 10 mg/mL of [Glu^22,25,Leu^23,28,31,Aib^29,Lys^26,30]hPTHrP(1-34)NH2 and 10 mg/mL of L-histidine monohydrochloride (His-HCl) in PBS was prepared. A control formulation was also prepared containing 10 mg/mL of [Glu^22,25,Leu^23,28,31,Aib^29,Lys^26,30]hPTHrP(1-34)NH2 in PBS. […] Microneedle arrays were coated with either the sample or the control formulation. The coating was applied by dropwise addition of 40 μL of the formulation to the portion of the array defined by the octagon shaped pattern of microneedles. The coated arrays (both sample and control formulation coated) were dried in an oven at 35° C. for 1.5 hours followed by 30° C. for 15 hours.
After drying, the coated arrays were placed in a storage chamber that was maintained at either 25° C./60% RH or 5° C./ambient RH. The [Glu^22,25,Leu^23,28,31,Aib^29,Lys^26,30]hPTHrP(1-34)NH2 content of the coated arrays was determined following storage in the chamber for 7 days, 14 days, 28 days, and 2 months. The initial [Glu^22,25,Leu^23,28,31,Aib^29,Lys^26,30]hPTHrP(1-34)NH2 content was also determined using freshly coated arrays (both sample and control formulation coated). The arrays used to determine initial content were stored in a refrigerator at about 4° C. and analyzed within one day of being prepared. At the designated time point, an array was taken from the chamber and washed with PBS (3.5 mL) to remove the coating from the array. An aliquot of the resulting wash solution was analyzed for [Glu^22,25,Leu^23,28,31,Aib^29,Lys^26,30]hPTHrP(1-34)NH2 content using the HPLC method described above. The results were quantified against an external standard of [Glu^22,25,Leu^23,28,31,Aib^29,Lys^26,30]hPTHrP(1-34)NH2. At each time point, the percent purity of [Glu^22,25,Leu^23,28,31,Aib^29,Lys^26,30]hPTHrP(1-34)NH2 in the coating was determined by measuring the peak area for [Glu^22,25,Leu^23,28,31,Aib^29,Lys^26,30]hPTHrP(1-34)NH2 in the selected coating and dividing it by the total peak area measured for all [Glu^22,25,Leu^23,28,31,Aib^29,Lys^26,30]hPTHrP(1-34)NH2 related peaks.
The same procedure as described in Example 10 was used with the exception that the sample formulation contained 10 mg/mL of L-arginine hydrochloride, instead of L-histidine monohydrochloride.

## [Glu^22,25,Leu^23,28,31,Aib^29,Lys^26,30]hPTHrP(1-34)NH2
Amino Acid L-Arginine (Arg-HCl 10 mg/mL), peptide in PBS, Storage Condition 5° C./ambient RH, 0 day
  Percent Purity of [Glu^22,25, Leu^23,28,31, Aib^29, Lys^26,30]hPTHrP(1-34)NH2: 99.0%
Amino Acid L-Arginine (Arg-HCl 10 mg/mL), peptide in PBS, Storage Condition 5° C./ambient RH, 2 months
  Percent Purity of [Glu^22,25, Leu^23,28,31, Aib^29, Lys^26,30]hPTHrP(1-34)NH2: 98.4%
Amino Acid L-Arginine (Arg-HCl 10 mg/mL), peptide in PBS, Storage Condition 5° C./ambient RH, 7 day
  Percent Purity of [Glu^22,25, Leu^23,28,31, Aib^29, Lys^26,30]hPTHrP(1-34)NH2: 98.8%
Amino Acid L-Arginine (Arg-HCl 10 mg/mL), peptide in PBS, Storage Condition 5° C./ambient RH, 14 day
  Percent Purity of [Glu^22,25, Leu^23,28,31, Aib^29, Lys^26,30]hPTHrP(1-34)NH2: 98.8%
Amino Acid L-Arginine (Arg-HCl 10 mg/mL), peptide in PBS, Storage Condition 5° C./ambient RH, 28 day
  Percent Purity of [Glu^22,25, Leu^23,28,31, Aib^29, Lys^26,30]hPTHrP(1-34)NH2: 98.8%
Amino Acid L-Arginine (Arg-HCl 10 mg/mL), peptide in PBS, Storage Condition 25° C./60% RH, 0 day
  Percent Purity of [Glu^22,25, Leu^23,28,31, Aib^29, Lys^26,30]hPTHrP(1-34)NH2: 99.0%
Amino Acid L-Arginine (Arg-HCl 10 mg/mL), peptide in PBS, Storage Condition 25° C./60% RH, 2 months
  Percent Purity of [Glu^22,25, Leu^23,28,31, Aib^29, Lys^26,30]hPTHrP(1-34)NH2: 97.8%
Amino Acid L-Arginine (Arg-HCl 10 mg/mL), peptide in PBS, Storage Condition 25° C./60% RH, 7 day
  Percent Purity of [Glu^22,25, Leu^23,28,31, Aib^29, Lys^26,30]hPTHrP(1-34)NH2: 98.8%
Amino Acid L-Arginine (Arg-HCl 10 mg/mL), peptide in PBS, Storage Condition 25° C./60% RH, 14 day
  Percent Purity of [Glu^22,25, Leu^23,28,31, Aib^29, Lys^26,30]hPTHrP(1-34)NH2: 98.6%
Amino Acid L-Arginine (Arg-HCl 10 mg/mL), peptide in PBS, Storage Condition 25° C./60% RH, 28 day
  Percent Purity of [Glu^22,25, Leu^23,28,31, Aib^29, Lys^26,30]hPTHrP(1-34)NH2: 98.7%
Amino Acid L-Histidine (His-HCl 10 mg/mL), peptide 10 mg/mL in PBS, Storage Condition 5° C./ambient RH, 2 months
  Percent Purity of [Glu^22,25, Leu^23,28,31, Aib^29, Lys^26,30]hPTHrP(1-34)NH2: 98.7%
Amino Acid L-Histidine (His-HCl 10 mg/mL), peptide 10 mg/mL in PBS, Storage Condition 5° C./ambient RH, Day 7
  Percent Purity of [Glu^22,25, Leu^23,28,31, Aib^29, Lys^26,30]hPTHrP(1-34)NH2: 98.9%
Amino Acid L-Histidine (His-HCl 10 mg/mL), peptide 10 mg/mL in PBS, Storage Condition 5° C./ambient RH, Day 14
  Percent Purity of [Glu^22,25, Leu^23,28,31, Aib^29, Lys^26,30]hPTHrP(1-34)NH2: 98.9%
Amino Acid L-Histidine (His-HCl 10 mg/mL), peptide 10 mg/mL in PBS, Storage Condition 5° C./ambient RH, Day 28
  Percent Purity of [Glu^22,25, Leu^23,28,31, Aib^29, Lys^26,30]hPTHrP(1-34)NH2: 98.9%
Amino Acid L-Histidine (His-HCl 10 mg/mL), peptide 10 mg/mL in PBS, Storage Condition 5° C./ambient RH, Initial
  Percent Purity of [Glu^22,25, Leu^23,28,31, Aib^29, Lys^26,30]hPTHrP(1-34)NH2: 99.0%
Amino Acid L-Histidine (His-HCl 10 mg/mL), peptide 10 mg/mL in PBS, Storage Condition 25° C./60% RH, 2 months
  Percent Purity of [Glu^22,25, Leu^23,28,31, Aib^29, Lys^26,30]hPTHrP(1-34)NH2: 98.6%
Amino Acid L-Histidine (His-HCl 10 mg/mL), peptide 10 mg/mL in PBS, Storage Condition 25° C./60% RH, Day 7
  Percent Purity of [Glu^22,25, Leu^23,28,31, Aib^29, Lys^26,30]hPTHrP(1-34)NH2: 98.9%
Amino Acid L-Histidine (His-HCl 10 mg/mL), peptide 10 mg/mL in PBS, Storage Condition 25° C./60% RH, Day 14
  Percent Purity of [Glu^22,25, Leu^23,28,31, Aib^29, Lys^26,30]hPTHrP(1-34)NH2: 98.8%
Amino Acid L-Histidine (His-HCl 10 mg/mL), peptide 10 mg/mL in PBS, Storage Condition 25° C./60% RH, Day 28
  Percent Purity of [Glu^22,25, Leu^23,28,31, Aib^29, Lys^26,30]hPTHrP(1-34)NH2: 98.9%
Amino Acid L-Histidine (His-HCl 10 mg/mL), peptide 10 mg/mL in PBS, Storage Condition 25° C./60% RH, Initial
  Percent Purity of [Glu^22,25, Leu^23,28,31, Aib^29, Lys^26,30]hPTHrP(1-34)NH2: 99.0%
Amino Acid None (control), peptide 10 mg/mL in PBS, Storage Condition 5° C./ambient RH, 2 months
  Percent Purity of [Glu^22,25, Leu^23,28,31, Aib^29, Lys^26,30]hPTHrP(1-34)NH2: 97.3%
Amino Acid None (control), peptide 10 mg/mL in PBS, Storage Condition 5° C./ambient RH, Day 7
  Percent Purity of [Glu^22,25, Leu^23,28,31, Aib^29, Lys^26,30]hPTHrP(1-34)NH2: 98.2%
Amino Acid None (control), peptide 10 mg/mL in PBS, Storage Condition 5° C./ambient RH, Day 14
  Percent Purity of [Glu^22,25, Leu^23,28,31, Aib^29, Lys^26,30]hPTHrP(1-34)NH2: 98.4%
Amino Acid None (control), peptide 10 mg/mL in PBS, Storage Condition 5° C./ambient RH, Day 28
  Percent Purity of [Glu^22,25, Leu^23,28,31, Aib^29, Lys^26,30]hPTHrP(1-34)NH2: 97.6%
Amino Acid None (control), peptide 10 mg/mL in PBS, Storage Condition 5° C./ambient RH, Initial
  Percent Purity of [Glu^22,25, Leu^23,28,31, Aib^29, Lys^26,30]hPTHrP(1-34)NH2: 98.7%
Amino Acid None (control), peptide 10 mg/mL in PBS, Storage Condition 25° C./60% RH, 2 months
  Percent Purity of [Glu^22,25, Leu^23,28,31, Aib^29, Lys^26,30]hPTHrP(1-34)NH2: 96.3%
Amino Acid None (control), peptide 10 mg/mL in PBS, Storage Condition 25° C./60% RH, Day 7
  Percent Purity of [Glu^22,25, Leu^23,28,31, Aib^29, Lys^26,30]hPTHrP(1-34)NH2: 98.0%
Amino Acid None (control), peptide 10 mg/mL in PBS, Storage Condition 25° C./60% RH, Day 14
  Percent Purity of [Glu^22,25, Leu^23,28,31, Aib^29, Lys^26,30]hPTHrP(1-34)NH2: 97.7%
Amino Acid None (control), peptide 10 mg/mL in PBS, Storage Condition 25° C./60% RH, Day 28
  Percent Purity of [Glu^22,25, Leu^23,28,31, Aib^29, Lys^26,30]hPTHrP(1-34)NH2: 97.5%
Amino Acid None (control), peptide 10 mg/mL in PBS, Storage Condition 25° C./60% RH, Initial
  Percent Purity of [Glu^22,25, Leu^23,28,31, Aib^29, Lys^26,30]hPTHrP(1-34)NH2: 98.7%
